Data set [1] can be described thus: Ratio of drug concentration at steady state in human at 1 ug/ml, po QD after 24 hrs to IC50 for human BSEP overexpressed in Sf9 insect cells. It is filed as ADME, organism-based.
Another data set deals with Homo sapiens. The data set can be described thus: Drug concentration at steady state in human at 1 ug/ml, po QD after 24 hrs. It is filed as ADME, organism-based. The note with it: in vivo.
For another data set, the target named is Bile salt export pump (Homo sapiens, UniProt O95342). The data set can be described thus: Inhibition of human BSEP overexpressed in Sf9 cell membrane vesicles assessed as uptake of [3H]-taurocholate in presence of ATP measured after 15 to 20 mins by membrane vesicle transport assay. It is filed as ADME, cell-based.
A short description of data set [2]: AUC in human at 1 ug/ml, po QD after 24 hrs. It is filed as ADME, organism-based. Details: dose 1 ug/ml, time < 24 hr, route oral. The note with it: in vivo.
The target in data set [3] is ATP-binding cassette sub-family C member 3 (Homo sapiens, UniProt O15438). The data set can be described thus: Inhibition of human MRP3 overexpressed in Sf9 insect cell membrane vesicles assessed as uptake of [3H]-estradiol-17beta-D-glucuronide in presence of ATP and GSH measured after 10 mins by membrane vesicle transport assay. It is filed as ADME, cell-based.
Data set [4] has as its target T1, ATP-binding cassette sub-family C member 4 (Homo sapiens, UniProt O15439).
T1 sequence (O15439 whole entry): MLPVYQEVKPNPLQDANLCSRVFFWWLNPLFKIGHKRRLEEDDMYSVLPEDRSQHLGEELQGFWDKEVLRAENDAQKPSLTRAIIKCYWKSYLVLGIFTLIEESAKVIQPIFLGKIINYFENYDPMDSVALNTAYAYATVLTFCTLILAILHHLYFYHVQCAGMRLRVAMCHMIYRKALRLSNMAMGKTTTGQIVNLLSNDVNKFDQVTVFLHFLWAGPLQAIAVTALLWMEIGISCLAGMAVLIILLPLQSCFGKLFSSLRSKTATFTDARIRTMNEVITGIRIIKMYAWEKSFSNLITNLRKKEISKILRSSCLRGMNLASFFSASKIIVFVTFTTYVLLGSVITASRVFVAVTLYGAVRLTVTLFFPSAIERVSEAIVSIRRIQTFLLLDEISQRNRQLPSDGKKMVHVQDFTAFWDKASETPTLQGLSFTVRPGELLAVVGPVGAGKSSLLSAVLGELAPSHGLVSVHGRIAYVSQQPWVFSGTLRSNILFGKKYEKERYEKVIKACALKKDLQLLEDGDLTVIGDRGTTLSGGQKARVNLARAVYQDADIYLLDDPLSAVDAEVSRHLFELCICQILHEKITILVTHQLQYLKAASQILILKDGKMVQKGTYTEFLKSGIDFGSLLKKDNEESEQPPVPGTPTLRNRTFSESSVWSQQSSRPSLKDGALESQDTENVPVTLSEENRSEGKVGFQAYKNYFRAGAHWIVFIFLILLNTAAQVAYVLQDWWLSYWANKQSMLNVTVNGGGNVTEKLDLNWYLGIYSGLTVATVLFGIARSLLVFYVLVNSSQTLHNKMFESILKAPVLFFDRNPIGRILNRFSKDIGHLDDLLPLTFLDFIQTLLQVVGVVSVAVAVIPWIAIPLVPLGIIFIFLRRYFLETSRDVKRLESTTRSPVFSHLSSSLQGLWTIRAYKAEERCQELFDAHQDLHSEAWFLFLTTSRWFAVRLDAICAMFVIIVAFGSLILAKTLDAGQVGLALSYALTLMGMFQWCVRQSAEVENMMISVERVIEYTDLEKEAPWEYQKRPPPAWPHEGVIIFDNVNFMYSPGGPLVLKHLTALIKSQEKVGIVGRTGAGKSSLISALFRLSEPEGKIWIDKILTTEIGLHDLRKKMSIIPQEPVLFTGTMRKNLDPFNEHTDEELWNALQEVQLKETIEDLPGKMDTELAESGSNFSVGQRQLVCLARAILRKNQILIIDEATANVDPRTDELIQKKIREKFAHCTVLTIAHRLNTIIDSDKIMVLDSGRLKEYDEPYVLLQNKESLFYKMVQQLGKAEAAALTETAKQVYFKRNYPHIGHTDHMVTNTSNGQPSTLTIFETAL
The data set can be described thus: Inhibition of human MRP4 overexpressed in Sf9 cell membrane vesicles assessed as uptake of [3H]-estradiol-17beta-D-glucuronide in presence of ATP and GSH measured after 20 mins by membrane vesicle transport assay. It is filed as ADME, cell-based.

Data set [5] addresses ATP-binding cassette sub-family C member 2 (Homo sapiens, UniProt Q92887). The data set can be described thus: Inhibition of human MRP2 overexpressed in Sf9 cell membrane vesicles assessed as uptake of [3H]-estradiol-17beta-D-glucuronide in presence of ATP and GSH measured after 20 mins by membrane vesicle transport assay.
Data set [6] in a line: Drug concentration at steady state in human at 10 mg, po after 24 hrs. It is filed as ADME, organism-based. The conditions noted are these: in vivo, read-out: Css.
The nature of data set [7]: Ratio of drug concentration at steady state in human at 10 mg, po after 24 hrs to IC50 for human BSEP overexpressed in Sf9 insect cells. It is filed as ADME, organism-based. The conditions noted are these: in vivo.
A short description of data set [8]: AUC in human at 10 mg, po after 24 hrs. It is filed as ADME, organism-based. Details: time < 24 hr, dose 10 mg, route oral. The conditions noted are these: in vivo.
A short description of data set [9]: Ratio of drug concentration at steady state in human at 20 to 80 mg, po QD after 24 hrs to IC50 for human BSEP overexpressed in Sf9 insect cells. The conditions noted are these: in vivo. It is filed as ADME, organism-based.
Data set [10] can be described thus: AUC in human at 20 to 80 mg, po QD after 24 hrs. The conditions noted are these: in vivo. It is filed as ADME, organism-based.
A short description of data set [11]: Drug concentration at steady state in human at 20 to 80 mg, po QD after 24 hrs. It is filed as ADME, organism-based. The conditions noted are these: in vivo, read-out: Css.
Data set [12] is described as follows: Ratio of drug concentration at steady state in human at 20 to 80 mg, po QD after 24 hrs to IC50 for human MRP3 overexpressed in Sf9 insect cells. It is filed as ADME, organism-based. The conditions noted are these: in vivo.
A short description of data set [13]: AUC in human at 15 to 60 mg, po QD after 24 hrs. It is filed as ADME, organism-based. The conditions noted are these: in vivo.
A short description of data set [14]: Ratio of drug concentration at steady state in human at 15 to 60 mg, po QD after 24 hrs to IC50 for human BSEP overexpressed in Sf9 insect cells. It is filed as ADME, organism-based. The conditions noted are these: in vivo.
Data set [15] can be described thus: Drug concentration at steady state in human at 15 to 60 mg, po QD after 24 hrs. It is filed as ADME, organism-based. The note with it: in vivo, read-out: Css.

Chain of Bile salt export pump (O95342 whole entry): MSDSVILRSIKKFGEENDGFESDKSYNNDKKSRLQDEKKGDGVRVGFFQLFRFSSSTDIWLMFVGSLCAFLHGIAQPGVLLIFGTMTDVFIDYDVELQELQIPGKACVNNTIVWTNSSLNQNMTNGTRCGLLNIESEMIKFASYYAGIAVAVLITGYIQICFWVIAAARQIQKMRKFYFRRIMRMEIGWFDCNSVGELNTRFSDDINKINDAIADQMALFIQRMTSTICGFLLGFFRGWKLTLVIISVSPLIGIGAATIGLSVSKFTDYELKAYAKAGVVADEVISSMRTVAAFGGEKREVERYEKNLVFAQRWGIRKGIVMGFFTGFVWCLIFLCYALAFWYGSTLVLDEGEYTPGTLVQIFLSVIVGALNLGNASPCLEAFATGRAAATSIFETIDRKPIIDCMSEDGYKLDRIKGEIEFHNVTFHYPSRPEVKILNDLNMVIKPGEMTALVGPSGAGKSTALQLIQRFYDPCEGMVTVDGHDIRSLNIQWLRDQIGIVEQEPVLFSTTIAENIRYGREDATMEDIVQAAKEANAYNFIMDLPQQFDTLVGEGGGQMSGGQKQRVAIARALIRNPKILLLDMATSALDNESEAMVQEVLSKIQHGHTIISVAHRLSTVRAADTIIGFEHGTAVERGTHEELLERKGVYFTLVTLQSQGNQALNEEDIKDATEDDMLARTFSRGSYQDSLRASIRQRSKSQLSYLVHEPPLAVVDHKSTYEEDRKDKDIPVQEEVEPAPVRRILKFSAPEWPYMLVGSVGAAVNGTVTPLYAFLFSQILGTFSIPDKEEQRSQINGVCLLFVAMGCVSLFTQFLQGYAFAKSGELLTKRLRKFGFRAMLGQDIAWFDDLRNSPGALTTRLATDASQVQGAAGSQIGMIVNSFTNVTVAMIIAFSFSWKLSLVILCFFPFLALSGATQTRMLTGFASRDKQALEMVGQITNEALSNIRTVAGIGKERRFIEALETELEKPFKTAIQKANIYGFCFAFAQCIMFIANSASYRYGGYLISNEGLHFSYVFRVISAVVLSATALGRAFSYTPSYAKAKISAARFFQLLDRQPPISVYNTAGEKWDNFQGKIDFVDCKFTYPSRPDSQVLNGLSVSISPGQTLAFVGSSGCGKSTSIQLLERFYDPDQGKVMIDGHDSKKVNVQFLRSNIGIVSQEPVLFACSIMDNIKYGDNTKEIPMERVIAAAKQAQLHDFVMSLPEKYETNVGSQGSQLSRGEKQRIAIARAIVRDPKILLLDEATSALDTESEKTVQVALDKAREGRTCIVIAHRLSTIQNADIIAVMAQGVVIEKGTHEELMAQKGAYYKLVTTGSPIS
Chain of ATP-binding cassette sub-family C member 2 (Q92887 whole entry): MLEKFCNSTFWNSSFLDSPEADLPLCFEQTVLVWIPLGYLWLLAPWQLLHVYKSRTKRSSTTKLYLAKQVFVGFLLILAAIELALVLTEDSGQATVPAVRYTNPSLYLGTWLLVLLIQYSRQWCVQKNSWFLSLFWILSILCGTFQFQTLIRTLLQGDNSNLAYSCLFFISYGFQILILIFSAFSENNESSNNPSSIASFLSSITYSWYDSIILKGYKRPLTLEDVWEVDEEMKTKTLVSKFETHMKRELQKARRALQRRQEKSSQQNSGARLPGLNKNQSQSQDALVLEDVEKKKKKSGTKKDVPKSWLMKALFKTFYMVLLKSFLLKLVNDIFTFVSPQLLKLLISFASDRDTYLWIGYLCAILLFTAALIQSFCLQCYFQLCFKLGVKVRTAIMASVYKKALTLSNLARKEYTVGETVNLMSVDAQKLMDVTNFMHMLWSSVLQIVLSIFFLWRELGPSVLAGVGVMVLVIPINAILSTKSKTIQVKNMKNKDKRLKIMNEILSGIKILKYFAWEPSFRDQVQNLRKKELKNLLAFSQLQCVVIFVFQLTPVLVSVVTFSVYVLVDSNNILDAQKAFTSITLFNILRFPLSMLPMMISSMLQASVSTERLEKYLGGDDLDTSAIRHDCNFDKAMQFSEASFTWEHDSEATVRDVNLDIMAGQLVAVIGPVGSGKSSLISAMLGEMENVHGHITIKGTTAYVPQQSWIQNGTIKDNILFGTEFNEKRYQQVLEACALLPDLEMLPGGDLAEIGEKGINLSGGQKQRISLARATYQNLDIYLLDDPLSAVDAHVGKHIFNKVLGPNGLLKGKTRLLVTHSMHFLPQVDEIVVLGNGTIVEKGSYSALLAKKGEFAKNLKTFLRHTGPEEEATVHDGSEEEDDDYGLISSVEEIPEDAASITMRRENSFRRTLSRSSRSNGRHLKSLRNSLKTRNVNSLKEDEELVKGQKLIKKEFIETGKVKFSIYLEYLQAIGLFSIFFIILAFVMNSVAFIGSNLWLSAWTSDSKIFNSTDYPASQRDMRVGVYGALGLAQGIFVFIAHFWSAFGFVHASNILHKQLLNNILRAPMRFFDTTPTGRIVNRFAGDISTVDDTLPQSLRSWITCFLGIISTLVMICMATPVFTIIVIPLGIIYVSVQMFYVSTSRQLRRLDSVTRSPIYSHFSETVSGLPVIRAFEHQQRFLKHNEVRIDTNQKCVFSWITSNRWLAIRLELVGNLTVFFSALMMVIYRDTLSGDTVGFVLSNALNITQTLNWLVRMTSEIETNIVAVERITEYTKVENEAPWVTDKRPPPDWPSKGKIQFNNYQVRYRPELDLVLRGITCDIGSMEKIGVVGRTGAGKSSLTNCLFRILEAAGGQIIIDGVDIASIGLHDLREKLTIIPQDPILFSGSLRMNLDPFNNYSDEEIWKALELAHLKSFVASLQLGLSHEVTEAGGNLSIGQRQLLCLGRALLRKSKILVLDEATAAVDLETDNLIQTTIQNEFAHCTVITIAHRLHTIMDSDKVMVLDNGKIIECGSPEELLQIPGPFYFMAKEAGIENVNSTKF
Chain of ATP-binding cassette sub-family C member 3 (O15438 whole entry): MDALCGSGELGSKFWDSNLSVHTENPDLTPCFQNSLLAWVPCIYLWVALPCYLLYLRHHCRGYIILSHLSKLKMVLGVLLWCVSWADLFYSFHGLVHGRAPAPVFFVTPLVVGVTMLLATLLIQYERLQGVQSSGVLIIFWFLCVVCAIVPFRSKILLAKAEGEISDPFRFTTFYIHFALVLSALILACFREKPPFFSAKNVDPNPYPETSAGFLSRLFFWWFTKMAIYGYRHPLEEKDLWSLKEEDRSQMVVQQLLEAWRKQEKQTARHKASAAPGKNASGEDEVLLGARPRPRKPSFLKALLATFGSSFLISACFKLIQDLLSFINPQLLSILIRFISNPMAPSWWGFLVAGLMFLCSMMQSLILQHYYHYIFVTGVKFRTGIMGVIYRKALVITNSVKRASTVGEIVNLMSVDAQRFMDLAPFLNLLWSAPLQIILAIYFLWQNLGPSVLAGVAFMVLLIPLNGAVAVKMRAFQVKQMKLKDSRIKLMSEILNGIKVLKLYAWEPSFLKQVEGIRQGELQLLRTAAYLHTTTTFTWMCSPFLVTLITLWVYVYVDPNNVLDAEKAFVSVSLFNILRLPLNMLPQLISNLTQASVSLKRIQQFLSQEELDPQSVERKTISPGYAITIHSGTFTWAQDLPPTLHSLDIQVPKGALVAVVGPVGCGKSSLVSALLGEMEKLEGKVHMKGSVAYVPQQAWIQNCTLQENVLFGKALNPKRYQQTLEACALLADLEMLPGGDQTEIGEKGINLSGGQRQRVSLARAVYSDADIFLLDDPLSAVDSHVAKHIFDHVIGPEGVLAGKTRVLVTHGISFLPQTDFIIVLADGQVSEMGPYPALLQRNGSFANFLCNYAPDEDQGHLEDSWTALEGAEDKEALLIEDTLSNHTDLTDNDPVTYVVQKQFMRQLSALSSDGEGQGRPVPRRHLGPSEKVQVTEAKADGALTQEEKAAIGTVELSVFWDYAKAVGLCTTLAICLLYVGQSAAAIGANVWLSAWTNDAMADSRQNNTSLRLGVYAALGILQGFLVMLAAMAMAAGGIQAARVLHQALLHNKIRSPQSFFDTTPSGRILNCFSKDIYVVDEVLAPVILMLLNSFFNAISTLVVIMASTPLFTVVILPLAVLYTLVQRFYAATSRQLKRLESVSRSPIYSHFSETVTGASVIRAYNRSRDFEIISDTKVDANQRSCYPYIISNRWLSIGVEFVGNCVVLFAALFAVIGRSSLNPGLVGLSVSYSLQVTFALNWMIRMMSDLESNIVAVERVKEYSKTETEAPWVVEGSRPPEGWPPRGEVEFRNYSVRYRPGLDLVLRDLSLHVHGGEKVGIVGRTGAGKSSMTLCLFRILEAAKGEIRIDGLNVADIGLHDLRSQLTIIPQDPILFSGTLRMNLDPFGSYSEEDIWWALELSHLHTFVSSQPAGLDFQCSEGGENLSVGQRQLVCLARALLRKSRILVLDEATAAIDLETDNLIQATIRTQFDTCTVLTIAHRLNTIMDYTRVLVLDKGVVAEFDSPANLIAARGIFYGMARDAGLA

For `C=C1/C(=C\C=C2/CCC[C@]3(C)[C@@H]([C@H](C)CCCC(C)(C)O)CC[C@@H]23)C[C@@H](O)C[C@@H]1O` [CALCITRIOL], the Ratio in [1] came to 1.6e-6. The same compound came in with a Css in the data set with Homo sapiens of 0 nM. The half-inhibitory concentration (IC50) on Bile salt export pump was 39.7 µM; in [3], more than 133 µM; in [4] it was more than 133 µM; in data set [5], more than 133 µM. This compound had an exposure (AUC) at 24 h in data set [2] of 0.002 µM·h.
As for `O=C1[C@H](CC[C@H](O)c2ccc(F)cc2)[C@@H](c2ccc(O)cc2)N1c1ccc(F)cc1` [EZETIMIBE], the concentration at 24 h in [6] is 134 nM. Also, the IC50 on Bile salt export pump is 56 µM; in data set [3], more than 133 µM; in data set [4], more than 133 µM; in data set [5], more than 133 µM. Further, the Ratio in data set [7] was 0.002. Moreover, in data set [8], the exposure (AUC) at 24 h stood at 3.2 µM·h.
Regarding `CC(C)n1c(/C=C/C(O)CC(O)CC(=O)O)c(-c2ccc(F)cc2)c2ccccc21` (stereo not drawn) [FLUVASTATIN], the Ratio in data set [9] is reported as 0.002; in [12], 0.001. Also, the IC50 was 57 µM in data set [3] and more than 133 µM in data set [4]. Also, the AUC at 24 h in data set [10] is 1.49 µM·h. In addition, the concentration at 24 h in data set [11] is 62 nM.
Turning to `Cc1ccccc1C(=O)Nc1ccc(C(=O)N2CCCC(O)c3cc(Cl)ccc32)c(C)c1` (stereo not drawn) [TOLVAPTAN], the AUC at 24 h in [13] stood at 9.49 µM·h. Moreover, the Ratio in data set [14] is 0.04. The concentration for half-maximal inhibition (IC50) is 9.99 µM at Bile salt export pump, more than 133 µM in data set [3], more than 133 µM in data set [4] and more than 133 µM in [5]. For the same compound, the concentration at 24 h in data set [15] was determined as 396 nM.
With `NS(=O)(=O)Cc1noc2ccccc12` [ZONISAMIDE], the IC50 (at Bile salt export pump; in [3]; in data set [4]; in data set [5]) was more than 133 µM throughout.
With `CN1CCN(C(=O)OC2c3nccnc3C(=O)N2c2ccc(Cl)cn2)CC1` (stereo not drawn) [ZOPICLONE], the half-inhibitory concentration (IC50) (at Bile salt export pump; in data set [3]; in data set [4]; in [5]) was more than 133 µM each time.
Take SPIRAMYCIN: the IC50 (on Bile salt export pump; in data set [3]; in data set [4]; in data set [5]) was more than 133 µM each time.
On to enfuvirtide, for which the IC50 is more than 133 µM at Bile salt export pump, more than 133 µM in data set [3], 7.5 µM in data set [4] and more than 133 µM in data set [5].

The IC50 is the concentration that inhibits the measured activity by half. By AUC is commonly meant the area under the concentration-time curve, a measure of exposure.
